| melting point [°C] | SMILES |
| --- | --- |
| 193 to 196 | Oc1ccc2c(c1)C[C@H](O)[C@H](O)C2 (relative stereo) |
| 124 to 128 | CC(C)(CC(O)(CO)C(F)(F)F)c1cc(Br)cc2c1OCC2 (stereo unspecified) |
| 149 to 150 | CC(C)(C)C(=O)Nc1ccc(Cl)cc1 |
| 225 | Cc1cc(C)c2nc(NCC3COC(C)(C)O3)n(Cc3nc(C)ccc3O)c2c1 (stereo unspecified) |
| 194 to 195 | O=C(O)Cn1nnc(-c2ccc3c(c2)S(=O)(=O)c2ccccc2C3=O)n1 |
| 88 | CC1Oc2ccc(Cl)cc2N(CC(O)CO)C1=O (stereo unspecified) |
| 178 to 180 | COc1cc(N)c(S(C)(=O)=O)cc1C(=O)O |
| 190 to 193 | CC1(c2cc(NC(=O)c3ccc(Cl)cn3)ccc2F)N=C(N)COCC1(F)F (stereo unspecified) |
| 154 to 155 | COC(=O)c1ccc(COc2ccc3cc(-c4ccc(-c5ccccc5)n4Cc4ccc(C(F)(F)F)cc4)ccc3c2)cc1 |
| 72 to 74 | CC(=O)Nc1cc(F)c(OC(F)F)cc1[N+](=O)[O-] |
| 62 to 64 | CC(C)(Sc1ccccc1)C(=O)O |
| 224 to 226 | NC(=O)C1(N2C(=O)c3ccccc3C2=O)CCCCC1 |
| 50.9 to 52.5 | CCCCCCCCCCc1sc2c(sc3c2sc2c4sccc4sc23)c1CCCCCCCCCC |
| 111 to 113 | N#CSC1=Nc2ccccc2Sc2nccn21 |
| 155 to 156 | COCCNC(=O)CC1CN=C(c2cc3cc(Oc4ccc(S(C)(=O)=O)nc4)ccc3[nH]2)S1 (stereo unspecified) |
| 129 to 130 | COc1ccc(C(=CC=O)c2ccc(OC)c(OC)c2)cc1OC |
| 55 | C=CC(O)c1ccc([N+](=O)[O-])cc1 (stereo unspecified) |
| 51 to 53 | COc1ccc2cc(CCC3(C)OCCO3)cc(F)c2c1 |
| 193 to 195 | CSCCn1c(C)nc2c(N)nc3ccccc3c21 |
| > 350 | O=[N+]([O-])c1ccc(-c2cc3c(O)ncnc3o2)cc1 |
| 146 to 147 | C1=CCC2=C(C1)CC1=C(CC=CC1)C2 |
| 158 to 159 | CCC1(CC(=O)O)OCCc2c1[nH]c1c(C(C)C)cccc21 (stereo unspecified) |
| 102 | CCC(CC)C(=O)Nc1cc(-c2ccccc2)nc(-c2ccccc2)n1 |
| 62 | CCCCC[C@H]1CC[C@H](c2ccc(C#Cc3ccc(OC(F)F)cc3)cc2)CC1 |
| 94 to 94.5 | N#Cc1ccc(-c2ccc(Br)o2)cc1 |
| 208 to 210 | O=C(O)Cc1ccc2cc(O)ccc2c1 |

| melting point [°C] | SMILES |
| --- | --- |
| 213 | CC1(C)CC(=O)NC2=C1c1ccc(Cl)cc1CC2 |
| 116 | CS(=O)(=O)c1ccc(C(=O)c2cnoc2C2CC2)c(Cl)c1 |
| 139 to 141 | O=c1c(-c2ccccc2)ccc2n1CCSc1ccsc1-2 |
| 240 to 245 | O=C1NC(=O)C(c2ccc(NC(=O)c3ccccc3)cc2)S1 (stereo unspecified) |
| 124 to 125 | Cn1c(COc2ccc(C=O)cc2)nc2cccnc21 |
| 107 to 108 | C=CCOc1ccc(C)c2c1C(C)(C)C(=O)N2Cc1ccccc1 |
| 249 to 251 | COc1cccc2c1CC(n1cc[nH]c1=S)CC2 (stereo unspecified) |
| 131 to 132 | O=C(O)c1nc(Sc2ccccc2)ccc1Sc1ccccc1 |
| 240 | CC(=O)Oc1cc(C(=O)O)cc(C(=O)O)c1 |
| 97 | C=Cc1ccc(NS(C)(=O)=O)cc1 |
| 175 to 176 | O=C1CCC(=O)N1c1cccc(OCc2nc3ccccc3s2)c1 |
| 151 to 153 | CC(C)=NOCCCCn1cnc2c(N)nc3c(c21)CCCC3 |
| 165 | CS(=O)(=O)C(=C1CN(C(c2ccccc2)c2ccccc2)C1)c1ccc(Cl)cc1Cl |
| 98.3 to 99.5 | O=C(CCS)Nc1ccc(Nc2ccccc2)cc1 |
| 170 to 172 | CCOc1cccc(C(=O)Nc2ccc(C(=O)N3CCCc4ccccc43)cc2)c1 |
| 88 to 89 | COC(=O)Cc1csc2cc(-c3ccccc3)cn12 |
| 306 | COc1ccccc1-n1c(=O)[nH]c2c(C(N)=O)nc(-c3ccc4nc[nH]c4c3)nc21 |
| 110 to 111 | COc1cc2[nH]ccc2cc1Br |
| 148 to 150 | COc1ccc(/C=C/S(=O)(=O)CS(=O)(=O)/C=C/c2ccc(O)c(OC)c2)cc1N |
| 78 to 79 | CC(C)=CCn1c(-c2c(F)cccc2F)nc2c(C)cccc21 |
| 280 | Nc1cc(-c2noc(-c3cnc4ccc(-c5ccc(C(F)(F)F)cc5)cn34)n2)ccn1 |
| 151 to 155 | C#CCC1C(=O)NOc2cc(F)c(NC(=S)N3CCCC=N3)cc21 (stereo unspecified) |
| 162 to 164 | NC(=O)N(O)Cc1cc(Br)cs1 |
| 206 to 207 | N#CCCNC(=O)c1n[nH]cc1NC(=O)c1ccc2c(c1)CCO2 |
| 160 to 163 | NC(=O)Cc1nnc(S)o1 |
| 67 to 69.5 | C1CCC(C2CNCCNCCNCCNCCN2)CC1 (stereo unspecified) |

| melting point [°C] | SMILES |
| --- | --- |
| 150 to 151 | O=C(Nc1ccc(OCCN2CCOCC2)c2ccccc12)c1cc(F)cc(N2CCCCC2)c1 |
| 83 to 84 | CCOP(=O)(OCC)c1ccc(/C=C/c2ccc3c(c2)C(C)(C)CCC3(C)C)cc1 |
| 194 to 196 | CCN1C(c2nnc(-c3ccccc3)o2)=C(OC(=O)C2CCCC2)c2ccccc2S1(=O)=O |
| 123 to 127 | CC(C)C[C@H](NC(=O)C12CC3CC(CC(C3)C1)C2)C(=O)NCC(N)=O |
| 329 | NS(=O)(=O)c1cc(NC(=O)c2cnn3c(C(F)(F)F)cc(-c4ccc(Cl)cc4)nc23)c(Cl)s1 |
| 150 to 153 | Cc1c(C(F)(F)F)nn(C(C)C)c1O |
| 130 to 132 | CC(C)(C)OC(=O)N[C@@H]1C(=O)N[C@H]1C1CCCCC1 (relative stereo) |
| 164 to 166 | COC(=O)c1cc(C(=O)NNC(=O)c2ccccn2)c2cc(Cc3ccc(F)cc3)cnc2c1O |
| 209 to 212 | Cc1cc(-c2ccc(Cl)cc2)nn2c(C)nnc12 |
| 174 to 176 | Cc1cc(Nc2ccc(O)cc2)c2[nH]ncc2n1 |
| 167 to 171 | Cc1nccn1-c1ccc(-c2cnc([C@H](Cc3ccccn3)N(C=O)c3cc4ccccc4o3)n2C)cc1 |
| 42 | O=[N+]([O-])c1ccc(F)cc1Br |
| 110 to 120 | OCc1ncc2n1CCC2 |
| 190 | CC(C)(c1ccc(O)cc1)c1ccc(O)c(C(C)(C)c2ccc(O)cc2)c1 |
| 98 to 99 | Cc1cc2c(cc1Sc1ccc(C=O)cc1)C(C)(C)CCC2(C)C |
| 97 to 101 | COC(=O)C(Cl)C(C)=NNS(=O)(=O)c1ccc(C)cc1 (stereo unspecified) |
| 177 to 178 | CS(=O)(=O)c1ccc(-c2oc3ccc(F)cc3c(=O)c2-c2cccnc2)cc1 |
| 106 to 108 | CC(C)=CCC/C(C)=C/CSc1nc2cc(C(F)(F)F)ccc2[nH]1 |
| 168 to 173 | COc1cc(-c2oc3ccccc3c(=O)c2C(=O)NCCCCN2CCN(c3ccccn3)CC2)cc(OC)c1OC |
| 81 to 84 | Cc1cccc(-c2n[nH]cc2-c2ccc(F)c(-c3ccc(S(=O)(=O)C(F)(F)F)cc3)c2)n1 |
| 115 to 116 | O=S1C(Cl)=C(Cl)CN1C1CCCCC1 (stereo unspecified) |
| 185 to 189 | NS(=O)(=O)c1ccc(-c2cnn(Cc3ccccc3)c(=O)c2-c2ccc(F)cc2)cc1 |
| 172 to 173 | Cn1ncc(C(=O)NN)c1S(N)(=O)=O |
| 128 to 129 | CNc1ccc(C23CC2C(=O)N(C)C3=O)cc1 (stereo unspecified) |
| 180 to 182 | c1ccc2c(c1)CC(CN1CCN(c3ccc4c(c3)CCO4)CC1)C2 |
| 157 to 158 | O=[N+]([O-])c1ccc(C(Cl)=NNc2ccccc2)cc1 |

| melting point [°C] | SMILES |
| --- | --- |
| 53 to 55 | CCOC(=O)CCCOc1ccc(C(C)=O)cc1OC |
| 102 | COc1ccc(CC2(C)CN(C(c3ccccc3)c3ccccc3)CCN2C)cc1OC (stereo unspecified) |
| 210 to 212 | C1=C(/C=C/c2ccccc2)CCN(Cc2c[nH]c3ncccc23)C1 |
| 68 to 69 | CCOC(=O)c1c(C)cc2cnc(-c3ccccc3C(F)(F)F)nc2c1C |
| 202 to 203 | O=C(Cc1ccc(-c2ccc(C(CC3CCOCC3)c3ccc(S(=O)(=O)C4CC4)cc3)[nH]2)nc1)N1CCOCC1 (stereo unspecified) |
| 189 to 191 | O=C(CCC(Cl)(Cl)Cl)Nc1cccc(-c2ccnc3c(C(=O)c4cccs4)cnn23)c1 |
| 179 | COc1cc(-c2nc3ccccc3n2Cc2ccccc2I)cc(OC)c1OC |
| 51 | COC1COC(c2ccccc2)OC1 (stereo unspecified) |
| 205 | CNC(=O)N1CCc2[nH]cnc2C1c1ccco1 (stereo unspecified) |
| 126 to 127 | CCC(CC)O[C@@H]1C=C(C(=O)O)C[C@H](CC(O)CN=[N+]=[N-])[C@H]1NC(C)=O (stereo partly specified) |
| 121 to 123 | CCOCc1cnc2c(NC(=O)c3c(Cl)cccc3Cl)cccc2c1Cl |
| 159 to 164 | O=C(O)C1=Cc2cc(C(=O)Cc3ccccc3)ccc2OC1C(F)(F)F (stereo unspecified) |
| 92 to 93 | CCN(CC)C(=O)c1ccoc1-c1ccc2ccccc2c1 |
| 198 | O=C(O)Cc1cc(C(=O)Cc2ccccc2)ccc1O |
| > 300 | CS(=O)(=O)Cc1cnc2ccsc2c1O |
| 156 to 158 | c1cncc(-c2ccnc3nc(N4CCNCC4)nn23)c1 |
| 65 to 67 | CCCC(C(=O)N(CC)CC)n1cc(C)c(-c2ccccc2)n1 (stereo unspecified) |
| 87 | CCOC(=O)/C(C#N)=C(\N)C(CC)CC |
| 80.5 to 82 | Clc1ccc(OCc2ccc3ccccc3n2)cc1Cl |
| 76.5 to 77.5 | CC1=C(c2ccccc2)C(=O)N(C(C)(C)C(=O)Cc2cc(F)cc(F)c2)CO1 |
| 191 to 193 | Nc1nc(-c2cc(Cl)ccc2Cl)nc(N2CCCC2)n1 |
| 126 | CSc1cc(C(C)C)c(NC(=O)C2c3ccccc3COc3ccc(C)cc32)c(C(C)C)c1 (stereo unspecified) |
| 113 | CCCCCCC1CC(=O)C=C(N)C1 (stereo unspecified) |

| SMILES | melting point [°C] |
| --- | --- |
| O=C(NCc1ccc(Cl)cc1)c1cn(Cc2cccc(F)c2)c2sc(CN3CCOCC3)cc2c1=O | 214 to 215 |
| CC1CC(=O)N(c2ccccc2)c2cc(Cl)ccc2N1 (stereo unspecified) | 167 to 168 |
| CCN(CC)C(=O)CP(=S)(c1ccccc1)c1ccccc1 | 108 to 110 |
| C1=C(c2c[nH]c3ncccc23)CCN(CCOc2cccc3ncccc23)C1 | 202 to 205 |
| O=[N+]([O-])c1ccc(N2C3C4CCC(C4)C32)c2nnoc12 (stereo unspecified) | 132 to 133 |
